Laboratory results published in US20240382629A1, “HETEROBIVALENT AND HOMOBIVALENT AGENTS TARGETING FIBROBLAST ACTIVATION PROTEIN ALPHA AND/OR PROSTATE-SPECIFIC MEMBRANE ANTIGEN” (The Johns Hopkins University, priority 2021, published 2024).

How the values were obtained:
U87 tumor = test: PET imaging and tissue biodistribution in U87 tumor-bearing mice; assay type: in vivo, mouse
Protocol: (§1) Cell uptake assays, flow cytometry, and IHC were performed as described previously. Banerjee et al., 2019; Nimmagadda et al., 2018. PET imaging and biodistribution Sequential PET imaging and biodistribution studies were conducted to quantify and validate PET imaging data. Briefly, tumor-bearing mice were administrated approximately 7.4 MBq of radiotracer in 150 μL saline via tail-vein injection. They were randomized into the indicated groups of 3-4 mice before radiotracer injection.
In Experiment 1, bilateral xenografts of U87 (right flank) and PSMA+ PC3 PIP (left flank) tumors were established in male NSG mice (n=3), which underwent imaging followed by biodistribution over 24 h. […] A biodistribution study was further conducted with U87 tumors at 2 h post-injection (n=3) to compare the tissue distribution properties of ^64Cu-FP-L1 and ^64Cu-FAPI-04.

PSMA+ PC3 PIP tumor = test: PET imaging and biodistribution in PSMA+ PC3 PIP tumor-bearing mice; assay type: in vivo, mouse
Protocol: as §1, with “Banerjee et al., 2019; Nimmagadda et al., 2018.” left out

PSMA+ 786-O tumor = test: PET imaging and biodistribution in PSMA+ 786-O ccRCC tumor-bearing mice; assay type: in vivo, mouse; details: 2 h
Protocol: Experiment 4 consisted of preliminary imaging (7.4 MBq) (n=2) and biodistribution studies (0.74 MBq) at 2 h in male NSG healthy mice (n=3) and tumor-bearing human clear cell renal cell carcinoma (ccRCC) PSMA+786-O tumors (n=4).

[1] = Stability of radiotracer in PBS and bovine serum albumin; assay type: physicochemical; details: in PBS and bovine serum albumin at 37° C.
Protocol: Click chemistry was used to conjugate the FAP and PSMA targeting moieties with the selected linker. Radiolabeling employed a rapid microwave-assisted method to generate ^64Cu-FP-L1 in nearly quantitative yield. High-performance liquid chromatography (HPLC) was used to remove unreacted ligand to ensure high specific radioactivity (>19 MBq/nmol). ^64Cu-FP-L1 was stable for at least 4 h in PBS and bovine serum albumin at 37° C.

[2] = 4 h, NSG mice, U87 tumor, in %ID/g
[3] = 24 h, NSG mice, U87 tumor, in %ID/g
[4] = U87 in NSG mice, 20 μCi, n=3, G2/G3 and FAPI-04, in %ID/g
[5] = male NSG mice bearing U87 xenografts, 2 h, n=3-4
[6] = blocking with ZJ43 (500 nmol/kg)

N#C[C@@H]1CCCN1C(=O)CNC(=O)c1ccnc2ccc(OCCCNC(=O)CCc3cn(CCOCCOCCOCCC(=O)N[C@@H](CCCCNC(=O)CN4CCN(CC(=O)O)CCN(CC(=O)O)CC4)C(=O)NCCCCC(=O)N(CCCC[C@H](NC(=O)N[C@@H](CCC(=O)O)C(=O)O)C(=O)O)Cc4ccc(Br)cc4)nn3)cc12 [^64Cu-FP-L1, metal not drawn]
Biodistribution: Lac.gl (U87 tumor; [2]): 3.72 ± 0.72 | Biodistribution: Liver (U87 tumor; [2]): 5.52 ± 0.39 | Biodistribution: Lung (U87 tumor; [2]): 3.31 ± 0.26 | Biodistribution: Muscle (U87 tumor; [2]): 1.08 ± 0.10 | Biodistribution: Pancreas (U87 tumor; [2]): 3.19 ± 0.11 | Biodistribution: Sal.gl (U87 tumor; [2]): 4.80 ± 0.82 | Biodistribution: Sm.in (U87 tumor; [2]): 4.26 ± 0.33 | Biodistribution: Spleen (U87 tumor; [2]): 2.05 ± 0.13 | Biodistribution: Stomach (U87 tumor; [2]): 2.02 ± 0.30 | Biodistribution: Tumor (U87 tumor; [2]): 13.81 ± 1.78 | Tumor uptake, FAP+ U87 tumor (U87 tumor; 4 h, bilateral U87 / PSMA+ PC3 PIP model): 19.05±5.89 % ID/g | Biodistribution: Bladder (U87 tumor; [3]): 0.57 ± 0.13 | Biodistribution: Blood (U87 tumor; [3]): 0.91 ± 0.23 | Biodistribution: Bone (U87 tumor; [3]): 0.48 ± 0.08 | Biodistribution: Fat (U87 tumor; [3]): 0.23 ± 0.10 | Biodistribution: Heart (U87 tumor; [3]): 1.19 ± 0.34 | Biodistribution: Kidney (U87 tumor; [3]): 2.45 ± 0.32 | Biodistribution: Lac.gl (U87 tumor; [3]): 0.87 ± 0.14 | Biodistribution: Liver (U87 tumor; [3]): 4.21 ± 1.00 | Biodistribution: Lung (U87 tumor; [3]): 2.07 ± 0.40 | Biodistribution: Muscle (U87 tumor; [3]): 0.23 ± 0.04 | Biodistribution: Pancreas (U87 tumor; [3]): 0.72 ± 0.15 | Biodistribution: Sal.gl (U87 tumor; [3]): 0.92 ± 0.14 | Biodistribution: Sm.in (U87 tumor; [3]): 2.16 ± 0.29 | Biodistribution: Spleen (U87 tumor; [3]): 1.67 ± 0.32 | Biodistribution: Stomach (U87 tumor; [3]): 1.27 ± 0.14 | Biodistribution: Tumor (U87 tumor; [3]): 3.25 ± 0.05 | Tumor uptake, FAP+ U87 tumor (U87 tumor; 24 h, bilateral U87 / PSMA+ PC3 PIP model): 4.31±0.75 % ID/g | Biodistribution: Bladder (U87 tumor; [4]): 6.81 ± 3.65 | Biodistribution: Blood (U87 tumor; [4]): 2.29 ± 0.17 | Biodistribution: Bone (U87 tumor; [4]): 3.32 ± 0.74 | Biodistribution: Fat (U87 tumor; [4]): 1.03 ± 0.39 | Biodistribution: Heart (U87 tumor; [4]): 1.58 ± 0.17 | Biodistribution: Kidney (U87 tumor; [4]): 9.05 ± 0.88 | Biodistribution: Lacrimal (U87 tumor; [4]): 3.32 ± 0.36 | Biodistribution: Liver (U87 tumor; [4]): 4.27 ± 0.53 | Biodistribution: Lung (U87 tumor; [4]): 2.71 ± 0.40 | Biodistribution: Muscle (U87 tumor; [4]): 1.52 ± 0.20 | Biodistribution: Pancreas (U87 tumor; [4]): 1.02 ± 0.72 | Biodistribution: Salivary (U87 tumor; [4]): 4.64 ± 0.26 | Biodistribution: Sm. Intest. (U87 tumor; [4]): 3.01 ± 0.08 | Biodistribution: Spleen (U87 tumor; [4]): 1.83 ± 0.14 | Biodistribution: Stomach (U87 tumor; [4]): 2.17 ± 0.12 | Biodistribution: U87 (U87 tumor; [4]): 7.79 ± 1.12 | Bone uptake (U87 tumor; bilateral U87 / PSMA+ PC3 PIP model): > 1 % ID/g | Biodistribution: Bladder (U87 tumor; [5]): 6.16 ± 4.37 % ID/g | Biodistribution: Blood (U87 tumor; [5]): 1.87 ± 0.24 % ID/g | Biodistribution: Bone (U87 tumor; [5]): 2.02 ± 0.79 % ID/g | Biodistribution: Fat (U87 tumor; [5]): 0.35 ± 0.20 % ID/g | Biodistribution: Heart (U87 tumor; [5]): 1.36 ± 0.28 % ID/g | Biodistribution: Kidney (U87 tumor; [5]): 7.26 ± 2.83 % ID/g | Biodistribution: Lacrimal glands (U87 tumor; [5]): 4.74 ± 1.57 % ID/g | Biodistribution: Liver (U87 tumor; [5]): 4.05 ± 0.53 % ID/g | Biodistribution: Lung (U87 tumor; [5]): 2.80 ± 0.68 % ID/g | Biodistribution: Muscle (U87 tumor; [5]): 1.11 ± 0.23 % ID/g | Biodistribution: Pancreas (U87 tumor; [5]): 0.99 ± 0.18 % ID/g | Biodistribution: Salivary Glands (U87 tumor; [5]): 3.10 ± 0.51 % ID/g | Biodistribution: Sm. Intestine (U87 tumor; [5]): 2.32 ± 0.79 % ID/g | Biodistribution: Spleen (U87 tumor; [5]): 1.39 ± 0.10 % ID/g | Biodistribution: Stomach (U87 tumor; [5]): 1.89 ± 0.10 % ID/g | Biodistribution: U87 (U87 tumor; [5]): 10.83 ± 1.02 % ID/g | Uptake in PSMA+ PC3 PIP tumor (PSMA+ PC3 PIP tumor; 2 h): 12.06±0.78 % ID/g | Uptake in PSMA+ PC3 PIP tumors with FAP blockade (PSMA+ PC3 PIP tumor; 2 h, blocking with FAPI-04 (500 nmol/kg)): 18.56±2.02 % ID/g | Uptake in PSMA+ PC3 PIP tumor (PSMA+ PC3 PIP tumor; 4 h): 18.89±3.95 % ID/g | Uptake in PSMA+ PC3 PIP tumor (PSMA+ PC3 PIP tumor; 24 h): 10.51±1.82 % ID/g | Fold lower kidney uptake with ZJ43 vs unblocked (PSMA+ PC3 PIP tumor; ZJ43 (500 nmol/kg)): > 2 fold | Kidney uptake with PSMA blockade (PSMA+ PC3 PIP tumor; [6]): 2.97±0.23 % ID/g | Uptake in PSMA+ PIP tumor with PSMA blockade (PSMA+ PC3 PIP tumor; [6]): 7.48±0.5 % ID/g | Tumor uptake and retention in PSMA+PC3 PIP tumor (PSMA+ PC3 PIP tumor; from 1 to 24 h post-injection): > 10 % injected dose per gram of tissue | Kidney uptake, unblocked agent (PSMA+ PC3 PIP tumor; unblocked): 8.03±0.89 % ID/g | Tumor uptake, PSMA+ 786-O (PSMA+ 786-O tumor): 11.97±1.63 % ID/g | Renal uptake in PSMA+ 786-O xenograft-bearing NSG mice vs healthy NSG mice (PSMA+ 786-O tumor; head-to-head biodistribution): high renal uptake compared to healthy mice | Stability (stable for at least) [1]: at least 4 h
